For one data set, the target named is HIS-KRAS(G12C) (Homo sapiens (Human), UniProt P01116, G12C). The data set is described as follows: SOS1 catalyzed nucleotide exchange assay (TR-FRET). Particulars: GDP-loaded HIS-KRAS(G12C), 1 hour pre-incubation, TR-FRET. It is filed as biochemical. The protocol: TR-FRET signals were then read on Tecan Spark multimode microplate reader. […] TR-FRET ratios for each individual wells were calculated by equation: TR-FRET ratio=(Signal F515/Signal F486)*10000. Then the data were analyzed using a 4-parameter logistic model to calculate IC50 values.
(Time-resolved FRET reads energy transfer from a long-lived donor to a nearby acceptor.)

For data set [1], the system named is NCI-H358 cells expressing KRAS G12C mutant protein. Nature of the data set: Phospho-ERK1/2(THR202/TYR204) HTRF assay. It is filed as cell-based. Particulars: 2 hours incubation, read-out: p-ERK IC50. The protocol: The NCI-H358 cells in culture medium were seeded in 96-well plates at a concentration of 40,000 cells/well and then put in a 37° C./5% CO2 cell incubator to incubate overnight. […] After 2 hours incubation in a 37° C./5% CO2 cell incubator, the assay medium in 96-well plates was removed, then 50 μL of 1× blocking reagent-supplemented lysis buffer (Cisbio) was added and the plates were incubated at 25° C. for 45 min with shaking. 10 μL of cell lysates from the 96-well plates were transferred to a 384-well plate (Greiner) containing 2.5 μL/well HTRF® pre-mixed antibodies (Cisbio 64AERPEH). Incubate 4 hours at 25° C. and then read HTRF signals on Tecan Spark multimode microplate reader. The data were analyzed using a 4-parameter logistic model to calculate IC50 values.

Data set [2] in a line: Mouse pharmacokinetic study. It is filed as in vivo, Balb/c mouse. Here is the method:
The purpose of this study was to evaluate the pharmacokinetic properties of compounds in Balb/c mouse (♀) following single dose administration. The day before administration, mice were fasted overnight and free access to water. Six mice were needed for each compound and the six mice were divided into two groups (n=3/group), group A and group B. Mice in group A were treated with a single 3 mg/kg dose of compound (iv). Mice in group B were treated with a single 10 mg/kg dose of compound (po). For each mouse in group A, blood samples were collected at pre-dose, and at the time point of 0.083, 0.25, 0.5, 1, 2, 4, 6, 8 and 24 h post-dose. For each mouse in group B, blood samples were collected at pre-dose, and at the time point of 0.25, 0.5, 1, 2, 3, 4, 6, 8 and 24 h post-dose. Blood samples were placed on ice until centrifugation to obtain plasma samples. The plasma samples were stored at −80° C. until analysis. The concentration of compound in plasma samples was determined using a LC-MS/MS method.

Structures are written as SMILES. Read-outs that look alike come from different tables or passages of the source.

Sequence of HIS-KRAS(G12C) (P01116 other isoform, or with tags, fused parts or gaps G12C): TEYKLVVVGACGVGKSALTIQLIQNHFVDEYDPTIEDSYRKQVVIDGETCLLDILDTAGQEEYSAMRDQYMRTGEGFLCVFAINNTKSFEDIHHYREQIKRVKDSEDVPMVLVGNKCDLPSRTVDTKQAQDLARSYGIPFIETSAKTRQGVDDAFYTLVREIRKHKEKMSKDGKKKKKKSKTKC

Usually IC50 stands for the midpoint of a concentration-inhibition curve. By clearance is commonly meant the rate of elimination divided by the concentration. Read a low clearance as a low capacity for elimination. A word on the Cmax: it is the maximum level reached in the sampled fluid or tissue. In the case of `C=CC(=O)N1CCN(c2nc(=O)n(-c3c(C)ccnc3C(C)C)c3nc(-c4c(N)c(F)c(F)c(F)c4F)c(F)cc23)[C@@H](C)C1` [Compound 2, 4-((S)-4-acryloyl-2-methylpiperazin-1-yl)-7-(2-amino-3,4,5,6-tetrafluorophenyl)-6-fluoro-1-(2-isopropyl-4-methylpyridin-3-yl)pyrido[2,3-d]pyrimidin-2(1H)-one], the IC50 at HIS-KRAS(G12C) is 2.04 nM; in data set [1] (Homo sapiens, NCI-H358, 2 h) it was 30.7 nM. Further, the “Pharmacokinetic properties in words” value in data set [2] (mouse model, 3 mg/kg iv and 10 mg/kg po) is “good pharmacokinetic properties”. Further, the clearance in data set [2] (plasma, Balb/c mouse (female), 3 mg/kg, iv) amounted to 65.2 mL/min/kg. Moreover, the Vd in data set [2] (plasma, Balb/c mouse (female), 3 mg/kg, iv, read-out: Vss) was determined as 2.31 L/kg. Moreover, the AUC(0-t) in data set [2] (plasma, Balb/c mouse (female), 10 mg/kg, po, read-out: AUC0-24 h) amounted to 1150 ng·h/mL. Further, the Cmax in data set [2] (plasma, Balb/c mouse (female), 10 mg/kg, po, read-out: Cmax) turned out to be 1440 ng/mL. Moreover, the bioavailability in data set [2] (plasma, Balb/c mouse (female), 10 mg/kg, po, read-out: Oral BA (F %)) was determined as 44.7%.

Consider `C=CC(=O)N1CCN(c2nc(=O)n(-c3c(C)ccnc3C(C)C)c3nc(-c4c(N)c(F)c(F)c(F)c4F)c(F)cc23)C[C@H]1C` (single isomer, unassigned) [Compound 4-1], for which the concentration for half-maximal inhibition (IC50) at HIS-KRAS(G12C) came to 3.31 nM; in data set [1] (Homo sapiens, NCI-H358, 2 h) it was 40.9 nM.

`C=CC(=O)N1[C@H](C)CN(c2nc(=O)n(-c3c(C)ccnc3C(C)C)c3nc(-c4c(N)c(F)c(F)c(F)c4F)c(F)cc23)C[C@@H]1C` [Compound 5, 4-((3S,5R)-4-acryloyl-3,5-dimethylpiperazin-1-yl)-7-(2-amino-3,4,5,6-tetrafluorophenyl)-6-fluoro-1-(2-isopropyl-4-methylpyridin-3-yl)pyrido[2,3-d]pyrimidin-2(1H)-one]: the IC50 on HIS-KRAS(G12C) stood at 5.41 nM; in data set [1] (Homo sapiens, NCI-H358, 2 h) it was 48.8 nM.

Take `C=CC(=O)N1[C@H](C)CN(c2nc(=O)n(-c3c(C)ccnc3C(C)C)c3nc(-c4c(N)c(F)c(F)c(F)c4F)c(F)cc23)C[C@@H]1C` (single isomer, unassigned) [Compound 5-1]: the figures for the IC50 (on HIS-KRAS(G12C); in data set [1]) were 3.3 nM and 17.8 nM, respectively.

For `C=CC(=O)N1CCN(c2nc(=O)n(-c3c(C)ccnc3C(C)C)c3nc(-c4c(N)c(F)c(F)c(F)c4F)c(F)cc23)[C@@H](C)C1` (atropisomer, axis not shown; (P)) [Compound 2-2, (P)-4-((S)-4-acryloyl-2-methylpiperazin-1-yl)-7-(2-amino-3,4,5,6-tetrafluorophenyl)-6-fluoro-1-(2-isopropyl-4-methylpyridin-3-yl)pyrido[2,3-d]pyrimidin-2(1H)-one], the results for the concentration for half-maximal inhibition (IC50) (at HIS-KRAS(G12C); in data set [1]) were 61.8 nM and 681 nM, respectively.
